Earlier results in US12350251B2, “Sexual health enhancement composition” (Rev Pharmaceuticals, Inc., priority 2016, dated 2025).
pEC50: −log10 of the molar value. Where two headings read alike, the source gives them in different places.

Key:
cAMP production = conditions: treated cells
[1] = not given; remark: listed apart in the source
[2] = not given; remark: listed apart in the source
human CC = conditions: in vitro, alone; read-out: EC50 of relaxation of human CC

**Q.** With COc1ccc(Cc2nccc3cc(OC)c(OC)cc23)cc1OC [papaverine] as the compound, how does the cAMP production (cAMP production) read?
**A.** Its cAMP production is “unaffected”.

**Q.** Which water solubility does the source give for C=C[C@@]1(C)CC(=O)[C@]2(O)[C@@]3(C)[C@@H](O)CCC(C)(C)[C@@H]3[C@H](O)[C@H](OC(C)=O)[C@@]2(C)O1 [forskolin] here?
**A.** Its water solubility is “water soluble”.

**Q.** For N=C(N)NCCC[C@H](N)C(=O)O [L-arginine], which “peripheral vasodilation in humans” value ([1]; IV infusion or oral, about 6 to about 30 gm) is on record?
**A.** The value was “induced peripheral vasodilation”.

**Q.** For Cc1ccc(N(CC2=NCCN2)c2cccc(O)c2)cc1 [phentolamine], which cAMP production (cAMP production) is on record?
**A.** Its cAMP production is “unaffected”.

**Q.** For Cl.N=C(N)NCCC[C@H](N)C(=O)O [L-arginine hydrochloride (HCl), L-arginine hydrochloride], which Cmax ([2]; 6 gm oral) is on record?
**A.** Its Cmax is 310 µM.

**Q.** What about the Half-life ([2]; IV) of the same compound?
**A.** Its Half-life is 1 h.

**Q.** What about the Half-life ([2]; PO) of the same compound?
**A.** The Half-life was 1.5 h.

**Q.** What about the changes in hemodynamics ([1]; 6 gm doses) of the same compound?
**A.** Its changes in hemodynamics is “No significant changes”.

**Q.** What about the “urinary cGMP and nitrate excretion” value ([1]; about 6 gm to about 30 gm IV) of the same compound?
**A.** Its value is “significant increases”.

**Q.** And the “blood pressure and total peripheral resistance” value ([1]; after 30 gm IV)?
**A.** Its value is “significantly decreased”.

**Q.** With CCCCC[C@H](O)/C=C/[C@H]1[C@H](O)CC(=O)[C@@H]1CCCCCCC(=O)O [prostaglandin E1] as the compound, how does the pEC50 (human CC) read?
**A.** Its pEC50 is about 7.80.
